In ChEMBL document CHEMBL5365537, “Development of LM-41 and AF-2112, two flufenamic acid-derived TEAD inhibitors obtained through the replacement of the trifluoromethyl group by aryl rings” (Bioorg Med Chem Lett, 2023):
Activity calls are given as the source filed them. The calls are words filed in the database; no cut-off is given here.

Assays:
[1] = target: Transcriptional enhancer factor TEF-3 (Homo sapiens) (UniProt Q15561); experiment: Inhibition of TEAD4 in human MDA-MB-231 cells assessed as decrease in TEAD-dependent CTGF gene expression at 10 uM incubated for 24 hrs by RT-qPCR analysis; assay type: cell-based
[2] = target: Transcriptional enhancer factor TEF-3 (Homo sapiens) (UniProt Q15561); experiment: Inhibition of TEAD4 in human MDA-MB-231 cells assessed as decrease in TEAD-dependent Cyr61 gene expression at 10 uM incubated for 24 hrs by RT-qPCR analysis; assay type: cell-based
[3] = target: Transcriptional enhancer factor TEF-3 (Homo sapiens) (UniProt Q15561); experiment: Binding affinity to TEAD4 (unknown origin) assessed as change in aggregation temperature at 25 uM by DSLS thermal shift assay
[4] = target: Transcriptional enhancer factor TEF-3 (Homo sapiens) (UniProt Q15561); experiment: Inhibition of TEAD4 in human MDA-MB-231 cells assessed as decrease in TEAD-dependent Axl gene expression at 10 uM incubated for 24 hrs by RT-qPCR analysis; assay type: cell-based
[5] = target: Transcriptional enhancer factor TEF-3 (Homo sapiens) (UniProt Q15561); experiment: Inhibition of TEAD4 in human MDA-MB-231 cells assessed as decrease in TEAD-dependent NF2 gene expression at 10 uM incubated for 24 hrs by RT-qPCR analysis; assay type: cell-based
MDA-MB-231 = experiment: Antimigratory activity against human MDA-MB-231 cells assessed as reduction in cell migration at 10 uM incubated for 48 hrs; assay type: functional, cell-based
[6] = target: Transcriptional enhancer factor TEF-3 (Homo sapiens) (UniProt Q15561); experiment: Binding affinity to TEAD4 (unknown origin) assessed as change in aggregation temperature at 25 uM by DSF assay

Sequence of Transcriptional enhancer factor TEF-3 (Homo sapiens) (Q15561 whole entry): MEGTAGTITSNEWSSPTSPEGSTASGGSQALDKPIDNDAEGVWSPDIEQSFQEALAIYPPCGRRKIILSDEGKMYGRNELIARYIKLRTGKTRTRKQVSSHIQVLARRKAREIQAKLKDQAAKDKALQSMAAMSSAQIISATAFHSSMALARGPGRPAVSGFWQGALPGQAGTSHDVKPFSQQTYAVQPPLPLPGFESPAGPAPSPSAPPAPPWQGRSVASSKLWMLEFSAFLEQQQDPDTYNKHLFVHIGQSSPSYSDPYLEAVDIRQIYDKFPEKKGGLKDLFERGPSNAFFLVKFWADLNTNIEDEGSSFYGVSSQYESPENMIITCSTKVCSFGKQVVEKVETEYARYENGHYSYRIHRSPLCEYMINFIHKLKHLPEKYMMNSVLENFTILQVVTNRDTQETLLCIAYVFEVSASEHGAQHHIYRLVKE

O=C(O)c1ccc(F)cc1Nc1cccc(OCc2ccccc2)c1
inhibition [1]: Active
inhibition [2]: inactive
deltaT [3]: 3.8 °C
inhibition [4]: inactive
inhibition [5]: Active

O=C(O)c1ccc(F)cc1Nc1cccc(-c2ccc(C(F)(F)F)cc2)c1
deltaT [3]: 4.5 °C

O=C(O)c1ccc(F)cc1Nc1cccc(-c2ccccn2)c1
deltaT [3]: 1 °C

O=C(O)c1ccc(F)cc1Nc1cccc(Cc2ccccc2)c1
deltaT [3]: 3 °C

O=C(O)c1ccccc1Nc1cccc(-c2ccccc2)c1
deltaT [3]: 2.1 °C

Cc1ccc(Nc2cc(F)ccc2C(=O)O)cc1
deltaT [3]: 4 °C

O=C(O)c1ccc(F)cc1Nc1cccc(-c2cccc(C(F)(F)F)c2)c1
deltaT [3]: 6.2 °C

O=C(O)c1cccnc1Nc1cccc(-c2cccc(C(F)(F)F)c2)c1
deltaT [3]: 4.8 °C

Cc1cccc(Nc2cc(F)ccc2C(=O)O)c1
deltaT [3]: 4.7 °C

O=C(O)c1ccc(F)cc1Nc1cccc(CCc2ccccc2)c1
deltaT [3]: 5.6 °C

COc1cccc(-c2cccc(Nc3cc(F)ccc3C(=O)O)c2)c1
deltaT [3]: 3.5 °C

O=C(O)c1ccccc1Nc1cccc(OCc2ccccc2)c1
deltaT [3]: 2.9 °C

O=C(O)c1ccccc1Nc1cccc(C(F)(F)F)c1
inhibition [1]: inactive
inhibition [2]: inactive
Activity (MDA-MB-231): inactive
inhibition [4]: inactive
inhibition [5]: inactive

O=C(O)c1ccc(F)cc1Nc1cccc(OCCc2ccccc2)c1
inhibition [1]: Active
inhibition [2]: Active
deltaT [3]: 5.1 °C
Activity (MDA-MB-231): Active
inhibition [4]: Active
inhibition [5]: Active

O=C(O)c1ccc(F)cc1Nc1cccc(-c2ccccc2C(F)(F)F)c1
deltaT [3]: 2.5 °C

O=C(O)c1ccc(F)cc1Nc1cccc(-c2cccc(Br)c2)c1
deltaT [3]: 3.9 °C

O=C(O)c1ccc(F)cc1Nc1cccc(-c2ccccc2)c1
inhibition [1]: Active
inhibition [2]: Active
deltaT [3]: 3.4 °C
Activity (MDA-MB-231): Active
inhibition [4]: Active
inhibition [5]: Active

O=C(O)c1ccc(F)cc1Nc1cccc(COc2ccccc2)c1
deltaT [3]: 3 °C

Cc1ccccc1Nc1cc(F)ccc1C(=O)O
deltaT [3]: 2.2 °C

O=C(O)c1ccc(F)cc1Nc1cccc(-c2cccc(F)c2)c1
deltaT [3]: 3.9 °C

Cc1ccc(Nc2cc(F)ccc2C(=O)O)cc1OCc1ccccc1
deltaT [3]: 3.8 °C

O=C(O)c1cccnc1Nc1cccc(C(F)(F)F)c1
inhibition [1]: inactive
inhibition [2]: inactive
inhibition [4]: inactive
inhibition [5]: inactive

COc1ccc(-c2cccc(Nc3cc(F)ccc3C(=O)O)c2)cc1
deltaT [3]: 2.7 °C

COc1ccccc1-c1cccc(Nc2cc(F)ccc2C(=O)O)c1
deltaT [3]: 1.3 °C

Cc1ccc(Nc2cccc(OCc3ccccc3)c2)c(C(=O)O)c1
inhibition [1]: Active
inhibition [2]: inactive
deltaT [3]: 4 °C
Activity (MDA-MB-231): Active
inhibition [4]: inactive
inhibition [5]: Active

O=C(O)c1ccc(F)cc1Nc1cccc(-c2cccnc2)c1
deltaT [3]: 0 °C

O=C(O)c1ccc(F)cc1Nc1cccc(-c2cccc(Cl)c2)c1
deltaT [3]: 3.1 °C

O=C(O)c1cccnc1Nc1cccc(OCCc2ccccc2)c1
deltaT [6]: 3.6 °C
inhibition [1]: inactive
inhibition [2]: inactive
inhibition [4]: inactive
inhibition [5]: inactive

O=C(O)c1ccc(F)cc1Nc1ccccc1-c1cccs1
inhibition [1]: inactive
inhibition [2]: inactive
deltaT [3]: 5.5 °C
inhibition [4]: inactive
inhibition [5]: inactive

Cc1ccc(C(=O)O)c(Nc2cccc(OCc3ccccc3)c2)c1
deltaT [3]: 2.3 °C
